# pIC50: −log10 of the molar value.
# Molecular target: T1, p101/p110γ protein (PI3Kγ) (Homo sapiens, UniProt P48736)
# T1 construct: HA; made in house; host or cells: Spodoptera frugiperda (Sf9) cells, baculovirus coinfection
# Experiment: PI3Kγ in vitro kinase assay
# Assay type: biochemical
# Conditions: purified recombinant p101/p110γ with G protein β1/γ2 subunits, 20 μM ATP, 25 μM PIP2, 20 minutes at room temperature
# Method: Spodtera frugiperda cells, grown in ESF921 media, were coinfected with baculovirus expressing a glu-tagged pO1 and baculovirus expressing an HA-tagged p110γ, at a 3:1 ratio of p101 baculovirus to p110γ baculovirus. Sf9 cells were grown to 1×10^7 total cells/mL in 10 L bioreactors and harvested 48-72 hours post infection. Samples of infected cells were then tested for expression of p101/p110γ PI3 kinase by immunoprecipitation and Western Blot analysis methods (see below).
# To purify PI3Kγ, 4 volumes of room temperature hypotonic lysis buffer (1 mM MgCl2, 1 mM DTT, 5 mM EGTA, 1 mM Pefabloc, 0.5 μM aprotinin, 5 μM leupeptin, 2 μM pepstatin, 5 μM E64, pH 8) per gram of cell paste, was poured onto frozen cell pellets with stirring, then lysed in a nitrogen “bomb” at 400 psi (599HC T316, Parr Instrument Co, Moline, Ill.). NaCl was added to 150 mM, and sodium cholate was added to 1% and mixed for another 45 minutes. The lysates were clarified by centrifugation for 25 minutes at 14,000 rpm. The lysates were then loaded over anti-glu-linked Protein-G Sepaharose beads (Covance Research Products, Richmond, Calif.) using 20 mL resin/50 g cell paste. The column was washed with 15 volumes of wash buffer (1 mM DTT, 0.2 mM EGTA, 1 mM Pefabloc, 0.5 μM aprotinin, 5 μM leupeptin, 2 μM pepstatin, 5 μM E64, 150 mM NaCl, 1% sodium cholate, pH 8). PI3Kγ was eluted with 6 column volumes of wash buffer that contain 100 μg/mL of a peptide that competes for binding of the glu tag. The column fractions with the eluted protein (determined by taking OD280 readings) were collected and dialyzed in 0.2 mM EGTA, 1 mM DTT, 1 mM Pefabloc, 5 μM leupeptin, 0.5% sodium cholate, 150 mM NaCl, and 50% glycerol, pH 8. The fractions were stored at −80° C. until further use.
# Spodtera frugiperda cells were coinfected with baculovirus expressing a glu-tagged G protein β1 and baculovirus expressing a G protein β2, at a 1:1 ratio of glu-tagged G protein β1 baculovirus to G protein β2 baculovirus. Sf9 cells are grown in 10 L bioreactors and harvested 48-72 hours post infection. Samples of infected cells were tested for G protein β1/β2 expression by Western Blot analysis, as described below. Cell lysates were homogenized and loaded onto a column of glu-tagged beads as in Biological Example 1 and competed off the column with a glu peptide and processed as described in Biological Example 1.
# The inhibitory properties of the compounds in Table 1 were assayed in an in vitro PI3K assay. In a 96-well polypropylene plate, each well was spotted with 2 μL of 50 times the desired final concentration of compound in DMSO. Purified recombinant p101/p110γ protein (0.03 μg; ˜2.7 nM) and G protein β1/γ2 subunits (0.09 μg; ˜57.7 nM) for each reaction was combined in the assay buffer (30 mM HEPES, 100 mM NaCl, 1 mM EGTA, and 1 mM DTT). ATP and [γ-^32P-ATP] (0.09 μCi) were added to this mixture so that the final ATP concentration in the reaction was 20 μM. Lipid micelles were formed by sonicating phosphatidylinositol4,5-diphosphate (PIP2), phosphatidylethanolamine (PE), and Na-cholate in the assay buffer for 10 minutes, adding MgCl2 and incubating on ice for 20 minutes, for final concentrations of 25 μM PIP2, 300 μM PE, 0.02% Na-cholate, and 10 mM MgCl2 in the reaction. The reactions were started by adding equal volumes lipid and enzyme mixture in a total volume of 50 μL, allowed to run for 20 minutes at room temperature, and stopped with 100 μL 75 mM H3PO4. The lipid product was transderred to a glass fiber filter plate and washed with 75 mM H3PO4 severa; times. The presence of radioactive lipid product (PIP3) was measured by adding Wallac Optiphase mix to each well and counting in a Wallac 1450 Trilux plate reader (perkinElmer Life Sciences Inc., Boston, Mass. 02118). The IC50 for each compound tested is reported in μM in Table 1: […]
# T1 sequence (P48736 whole entry, species assumed): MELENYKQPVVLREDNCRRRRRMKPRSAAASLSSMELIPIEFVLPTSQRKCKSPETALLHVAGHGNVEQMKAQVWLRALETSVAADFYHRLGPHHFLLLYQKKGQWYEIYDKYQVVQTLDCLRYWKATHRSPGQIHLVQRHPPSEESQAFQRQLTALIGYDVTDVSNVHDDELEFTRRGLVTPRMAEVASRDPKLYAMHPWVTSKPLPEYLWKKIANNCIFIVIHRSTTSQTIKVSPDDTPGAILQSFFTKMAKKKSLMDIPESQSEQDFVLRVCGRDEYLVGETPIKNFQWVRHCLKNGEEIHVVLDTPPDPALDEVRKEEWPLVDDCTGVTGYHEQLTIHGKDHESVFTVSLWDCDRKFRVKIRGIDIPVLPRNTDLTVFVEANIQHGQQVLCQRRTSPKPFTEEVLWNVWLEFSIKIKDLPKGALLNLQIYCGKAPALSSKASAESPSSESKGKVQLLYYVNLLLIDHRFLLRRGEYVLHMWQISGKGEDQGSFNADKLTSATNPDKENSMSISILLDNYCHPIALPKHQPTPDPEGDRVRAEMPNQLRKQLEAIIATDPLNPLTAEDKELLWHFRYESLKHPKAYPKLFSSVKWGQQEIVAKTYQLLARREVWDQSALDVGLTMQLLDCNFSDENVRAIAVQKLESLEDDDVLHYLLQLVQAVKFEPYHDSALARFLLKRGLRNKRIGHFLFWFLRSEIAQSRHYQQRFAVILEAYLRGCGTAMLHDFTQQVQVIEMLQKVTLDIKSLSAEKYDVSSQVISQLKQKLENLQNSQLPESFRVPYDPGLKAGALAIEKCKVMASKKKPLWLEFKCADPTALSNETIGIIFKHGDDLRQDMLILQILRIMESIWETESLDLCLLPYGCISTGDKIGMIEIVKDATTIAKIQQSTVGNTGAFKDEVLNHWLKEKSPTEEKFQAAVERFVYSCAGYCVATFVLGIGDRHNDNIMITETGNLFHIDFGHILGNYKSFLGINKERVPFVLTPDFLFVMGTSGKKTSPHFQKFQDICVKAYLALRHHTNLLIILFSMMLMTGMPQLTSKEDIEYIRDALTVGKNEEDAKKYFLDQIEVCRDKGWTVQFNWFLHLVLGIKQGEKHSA
# T1 sequence (Q8WYR1 whole entry partner, species assumed): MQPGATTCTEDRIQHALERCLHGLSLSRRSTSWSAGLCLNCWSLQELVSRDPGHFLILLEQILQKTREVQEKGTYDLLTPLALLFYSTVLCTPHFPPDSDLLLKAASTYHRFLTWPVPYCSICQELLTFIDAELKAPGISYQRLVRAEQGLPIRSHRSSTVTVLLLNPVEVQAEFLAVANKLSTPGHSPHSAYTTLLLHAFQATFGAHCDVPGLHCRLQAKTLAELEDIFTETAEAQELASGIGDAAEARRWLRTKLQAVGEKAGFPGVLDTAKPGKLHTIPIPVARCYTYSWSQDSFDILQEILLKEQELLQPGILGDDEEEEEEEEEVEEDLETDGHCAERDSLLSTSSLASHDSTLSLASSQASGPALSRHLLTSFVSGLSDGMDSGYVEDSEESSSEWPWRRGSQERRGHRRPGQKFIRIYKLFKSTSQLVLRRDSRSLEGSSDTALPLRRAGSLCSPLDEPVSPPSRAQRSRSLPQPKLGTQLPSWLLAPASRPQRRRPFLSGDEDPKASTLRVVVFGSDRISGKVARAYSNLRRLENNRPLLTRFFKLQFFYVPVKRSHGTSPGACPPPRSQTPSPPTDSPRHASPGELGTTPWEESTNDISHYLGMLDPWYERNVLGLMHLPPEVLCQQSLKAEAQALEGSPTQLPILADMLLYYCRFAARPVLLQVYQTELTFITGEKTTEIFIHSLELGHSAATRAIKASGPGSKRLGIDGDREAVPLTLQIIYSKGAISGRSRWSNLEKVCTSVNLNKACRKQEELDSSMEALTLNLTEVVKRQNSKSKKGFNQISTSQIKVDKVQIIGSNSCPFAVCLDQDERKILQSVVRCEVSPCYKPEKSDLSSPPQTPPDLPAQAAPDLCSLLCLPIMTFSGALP
row,Structure (SMILES),pIC50
1,"COc1ccc2sc(C(=O)Nc3nnn[nH]3)c(SCC3CCCCC3)c2c1 [Example 1, 3-Cyclohexylmethylsulfanyl-5-methoxy-benzo[b]thiophene-2-carboxylic acid (1H-tetrazol-5-yl)-amide]",7.04
2,"COc1cc2c(SC3CCCCC3)c(C(=O)Nc3nnn[nH]3)sc2cc1C [Example 11, 3-Cyclohexylsulfanyl-5-methoxy-6-methyl-benzo[b]thiophene-2-carboxylic acid (1H-tetrazol-5-yl)-amide]",7.46
3,"CCOc1ccc2sc(C(=O)Nc3nnn[nH]3)c(SC3CCCCC3)c2c1 [Example 10, 3-Cyclohexylsulfanyl-5-ethoxy-benzo[b]thiophene-2-carboxylic acid (1H-tetrazol-5-yl)-amide]",5.81
4,"COc1cc2sc(C(=O)Nc3nnn[nH]3)c(SCC3CCCCC3)c2cc1OC [Example 2, 3-cyclohexylmethylsulfanyl-5,6-dimethoxy-benzo[b]thiophene-2-carboxylic acid (1H-tetrazol-5-yl)-amide]",5.42
5,"COc1cc2c(SC3CCCCC3)c(C(=O)Nc3nnn[nH]3)sc2cc1COCc1ccccc1 [Example 14, 6-Benzyloxymethyl-3-cyclohexylsulfanyl-5-methoxy-benzo[b]thiophene-2-carboxylic acid (1H-tetrazol-5-yl)-amide]",6.19
6,"COc1cc2sc(C(=O)Nc3nnn[nH]3)c(SC3CCCC3)c2cc1OC [Example 5, 3-cyclopentylsulfanyl-5,6-dimethoxy-benzo[b]thiophene-2-carboxylic acid (1H-tetrazol-5-yl)-amide]",6.60
7,"COc1ccc2sc(C(=O)Nc3nnn[nH]3)c(SC3CCCC3)c2c1 [Example 3, 3-cyclopentylsulfanyl-5-methoxy-benzo[b]thiophene-2-carboxylic acid (1H-tetrazol-5-yl)-amide]",5.92
8,"COc1cc2sc(C(=O)Nc3nnn[nH]3)c(SCC3CC3)c2cc1OC [Example 15, 3-Cyclopropylmethylsulfanyl-5,6-dimethoxy-benzo[b]thiophene-2-carboxylic acid (1H-tetrazol-5-yl)-amide]",6.61
9,"COc1cc2sc(C(=O)Nc3nnn[nH]3)c(SC3CCCCC3)c2cc1OC [Example 6, 3-Cyclohexylsulfanyl-5,6-dimethoxy-benzo[b]thiophene-2-carboxylic acid (1H-tetrazol-5-yl)-amide]",6.92
10,"COc1cc2sc(C(=O)Nc3nnn[nH]3)c(SC3CCCCC3)c2cc1C [Example 8, 3-Cyclohexylsulfanyl-6-methoxy-5-methyl-benzo[b]thiophene-2-carboxylic acid (1H-tetrazol-5-yl)-amide]",7.33
11,"CCOc1ccc2sc(C(=O)Nc3nnn[nH]3)c(SC3CCCC3)c2c1 [Example 9, 3-Cyclopentylsulfanyl-5-ethoxy-benzo[b]thiophene-2-carboxylic acid (1H-tetrazol-5-yl)-amide]",5.67
12,"COCc1cc2sc(C(=O)Nc3nnn[nH]3)c(SC3CCCCC3)c2cc1OC [Example 12, 3-Cyclohexylsulfanyl-5-methoxy-6-methoxymethyl-benzo[b]thiophene-2-carboxylic acid (1H-tetrazol-5-yl)-amide]",6.31
13,"COc1cc2sc(C(=O)Nc3nnn[nH]3)c(SC3CCCC3)c2cc1C [Example 7, 3-Cyclopentylsulfanyl-6-methoxy-5-methyl-benzo[b]thiophene-2-carboxylic acid (1H-tetrazol-5-yl)-amide]",6.93
14,"CCOCc1cc2sc(C(=O)Nc3nnn[nH]3)c(SC3CCCCC3)c2cc1OC [Example 13, 3-Cyclohexylsulfanyl-6-ethoxymethyl-5-methoxy-benzo[b]thiophene-2-carboxylic acid (1H-tetrazol-5-yl)-amide]",6.76
15,"COc1ccc2sc(C(=O)Nc3nnn[nH]3)c(SC3CCCCC3)c2c1 [Example 4, 3-cyclohexylsulfanyl-5-methoxy-benzo[b]thiophene-2-carboxylic acid (1H-tetrazol-5-yl)-amide]",6.42

# From patent publication US20040248954A1, “Cycloalkylsulfanyl substituted benzo[b]thiophenes as therapeutic agents” (priority 2003, published 2004)
